Reference: ChEMBL document CHEMBL4732247, “Discovery of A031 as effective proteolysis targeting chimera (PROTAC) androgen receptor (AR) degrader for the treatment of prostate cancer” (Eur J Med Chem, 2021)

Assays:
VCaP [1] = assay: Cytotoxicity against human VCaP cells assessed as growth inhibition at 0.125 uM after 4 days by CCK8 assay relative to control; assay type: functional; conditions: 96 h, time 4 day, read-out: GI
VCaP [2] = assay: Cytotoxicity against human VCaP cells assessed as growth inhibition at 0.25 uM after 4 days by CCK8 assay relative to control; assay type: functional; conditions: 96 h, time 4 day, read-out: GI
VCaP [3] = assay: Cytotoxicity against human VCaP cells assessed as growth inhibition at 0.5 uM after 4 days by CCK8 assay relative to control; assay type: functional; conditions: 96 h, time 4 day, read-out: GI
VCaP [4] = assay: Cytotoxicity against human VCaP cells assessed as growth inhibition at 1 uM after 4 days by CCK8 assay relative to control; assay type: functional; conditions: 96 h, time 4 day, read-out: GI
VCaP [5] = assay: Cytotoxicity against human VCaP cells assessed as growth inhibition after 4 days by CCK8 assay; assay type: functional, cell-based; conditions: dose 0.032-4 µM, time 4.0 day

Compound | inhibition of growth at 0.125 µM (VCaP [1]) [%] | inhibition of growth at 0.25 µM (VCaP [2]) [%] | inhibition of growth at 0.5 µM (VCaP [3]) [%] | inhibition of growth at 1 µM (VCaP [4]) [%] | growth inhibition (GI) (VCaP [5])
N#Cc1ccc(O[C@H]2C[C@H]3CC[C@@H](C2)N3C(=O)c2cnc(N3CCN(CCCCNc4ccc5c(c4)C(=O)N(C4CCC(=O)NC4=O)C5=O)CC3)nc2)cc1Cl (some centres undefined) | 10.2 | 22.2 | 36.5 | 53.1 | –
N#Cc1ccc(O[C@H]2C[C@H]3CC[C@@H](C2)N3C(=O)c2cnc(N3CCN(CCCCCCCNc4ccc5c(c4)C(=O)N(C4CCC(=O)NC4=O)C5=O)CC3)nc2)cc1Cl (some centres undefined) | 28.1 | 30.7 | 35.2 | 30.4 | –
Cc1ncsc1-c1ccc(CNC(=O)[C@@H]2C[C@@H](O)CN2C(=O)[C@@H](NC(=O)CN2CCN(c3ccc(C(=O)N4[C@@H]5CC[C@H]4C[C@@H](Oc4ccc(C#N)c(Cl)c4)C5)cc3)CC2)C(C)(C)C)cc1 | – | 5.65 | 35.1 | 86.7 | –
Cc1ncsc1-c1ccc(CNC(=O)[C@@H]2C[C@@H](O)CN2C(=O)[C@@H](NC(=O)COCCN2CCN(c3ccc(C(=O)N4[C@@H]5CC[C@H]4C[C@@H](Oc4ccc(C#N)c(Cl)c4)C5)cc3)CC2)C(C)(C)C)cc1 | 18.5 | 31.1 | 56.6 | 64.6 | –
C[C@@]12C[C@H](NC(=O)c3ccc(N4CCN(CCCCCCCCCNc5ccc6c(c5)C(=O)N(C5CCC(=O)NC5=O)C6=O)CC4)cc3)C[C@]1(C)C[C@@H](Oc1ccc(C#N)c(Cl)c1)C2 (some centres undefined) | – | 18 | 24.3 | 25 | –
N#Cc1ccc(O[C@H]2C[C@H]3CC[C@@H](C2)N3C(=O)c2cnc(N3CCN(CCCNc4ccc5c(c4)C(=O)N(C4CCC(=O)NC4=O)C5=O)CC3)nc2)cc1Cl (some centres undefined) | 17.1 | 25.6 | 30.1 | 42.4 | –
C[C@@]12C[C@H](NC(=O)c3ccc(N4CCN(CCCCCCCCNc5ccc6c(c5)C(=O)N(C5CCC(=O)NC5=O)C6=O)CC4)cc3)C[C@]1(C)C[C@@H](Oc1ccc(C#N)c(Cl)c1)C2 (some centres undefined) | 6.05 | 19.5 | 24.6 | 26 | –
N#Cc1ccc(O[C@H]2C[C@H]3CC[C@@H](C2)N3C(=O)c2cnc(N3CCN(CCCCCCCNc4cccc5c4C(=O)N(C4CCC(=O)NC4=O)C5=O)CC3)nc2)cc1Cl (some centres undefined) | 26.7 | 27.4 | 28.3 | 37.5 | Dose-dependent effect
N#Cc1ccc(O[C@H]2C[C@H]3CC[C@@H](C2)N3C(=O)c2cnc(N3CCN(CCCCCNc4ccc5c(c4)C(=O)N(C4CCC(=O)NC4=O)C5=O)CC3)nc2)cc1Cl (some centres undefined) | 20.4 | 31.4 | 34.2 | 34.9 | –
Cc1ncsc1-c1ccc([C@H](C)NC(=O)[C@@H]2C[C@@H](O)CN2C(=O)[C@@H](NC(=O)COCCN2CCN(c3ccc(C(=O)N4[C@@H]5CC[C@H]4C[C@@H](Oc4ccc(C#N)c(Cl)c4)C5)nn3)CC2)C(C)(C)C)cc1 | – | 6.65 | 12.5 | 28.1 | –
C[C@@]12C[C@H](NC(=O)c3ccc(N4CCN(CCCCCCNc5ccc6c(c5)C(=O)N(C5CCC(=O)NC5=O)C6=O)CC4)cc3)C[C@]1(C)C[C@@H](Oc1ccc(C#N)c(Cl)c1)C2 (some centres undefined) | 30.7 | 31.8 | 34.5 | 35.3 | –
N#Cc1ccc(O[C@H]2C[C@H]3CC[C@@H](C2)N3C(=O)c2cnc(N3CCN(CCCNc4cccc5c4C(=O)N(C4CCC(=O)NC4=O)C5=O)CC3)nc2)cc1Cl (some centres undefined) | – | – | 9.74 | 30.4 | Dose-dependent effect
Cc1ncsc1-c1ccc(CNC(=O)[C@@H]2C[C@@H](O)CN2C(=O)[C@@H](NC(=O)CCN2CCN(c3ccc(C(=O)N4[C@@H]5CC[C@H]4C[C@@H](Oc4ccc(C#N)c(Cl)c4)C5)cc3)CC2)C(C)(C)C)cc1 | 1.87 | 2.74 | 18.2 | 61.2 | –
N#Cc1ccc(O[C@H]2C[C@H]3CC[C@@H](C2)N3C(=O)c2cnc(N3CCN(CCCCCCNc4cccc5c4C(=O)N(C4CCC(=O)NC4=O)C5=O)CC3)nc2)cc1Cl (some centres undefined) | 10.1 | 23.5 | 32.1 | 40.5 | Dose-dependent effect
